How the values were obtained:
[1] = system: Akt phosphorylation (Ser473) in bone marrow-derived macrophages (BMDM); assay: Akt phosphorylation in BMDM stimulated with C5a; format: cell-based, mouse; conditions: C5a 25 nM
Method: BMDMs were obtained from bone marrows isolated from femurs and tibias of C57BL/6J mice. Bone marrow cells were cultured in a petri plate in the presence of RPMI additioned with 30% L-cell conditioned medium (supernatant of 5 days culture of L929 cells), 20% FBS and 100 μg/ml penicillin and streptomycin. After about 7 days, almost all cells became attached BMDM. BMDM were pretreated with Versene (GIBCO^TM #15040066) to detach them from the plate, washed, and placed on a 24 wells culture plate at a density of 2 × 10^5 cell/well in RPMI free medium. After 6 h of starvation, BMDMs were pretreated with CL27c at different concentrations and stimulated with C5a (25 nM, Sigma-Aldrich #SRP4895A) for 5 min. Proteins were extracted with Laemnli buffer.
For all cell types, phosphorylated Akt (P-Akt, Ser 473, 1:100, Cell Signaling Technology #4060) production was detected by western blot analysis and quantified with ChemiDoc™ XRS system. P-Akt signals are normalized on endogenous. For the calculation of EC50 values, a percentage of residual P-Akt was calculated for each inhibitor concentration by using the control vehicle as 100%. To derive the EC50, all data were plotted on a dose response curve (Graph Pad software) and the EC50 was calculated by using the non-linear regression fit (equation [log agonist] vs response–variable slope). […]
panel). […] The respective EC50 was calculated by using nonlinear

[2] = system: Akt phosphorylation (Ser473) in lung, heart, liver; assay: Insulin stimulation analysis in liver, heart, and lung (pAkt); format: in vivo, mice; conditions: inhaled CL27c 2 mg/ml 30 min; insulin 1 UI/kg i.p.
Method: Animals were fasted overnight and, the day after, they were treated for 30 min with aerosolized CL27c (2 mg/ml in 0.5 % tylaxopol/saline solution). After 1 h from the CL27c treatment mice were administrated with insulin (1.0 UI kg^−1 diluted in PBS solution, Actrapid, Novo Nordisk, i.p. injection). Ten min after injection, the animals where sacrificed and tissues removed, frozen in liquid nitrogen, and homogenized in lysis buffer (50 mM Tris-HCl, pH = 8, 150 mM NaCl, 1% Triton X-100) supplemented with 50 mM NaF, 2 mM sodium orthovanadate, 1 mM sodium pyro-phosphate, and protease inhibitor cocktail (Roche).
Lung, liver, and heart samples were collected for western blot detection of akt phosphorilation levels. Protein samples were resolved by 10% SDS-PAGE and transferred on to PVDF (Immobilon™-P) membranes. The membranes were blocked with 5% BSA in 1x TBS with 0.3% Tween 20 for 30 min at […]. Then, the membranes were incubated overnight at 4 °C with primary antibodies (phosphorylated Akt serine 473, 1:1000, Cell Signaling Technology, Cat. Number 4060) and 1 h with HRP-conjugated secondary antibody (1:10000). […] For quantification, specific phosphorylation was calculated as the ratio of signals for phosphorylated Akt to the signal of total Akt detected. […]

COC(=O)c1cccc(Cn2cc(-c3cccc4c(=O)cc(N5CCOCC5)[nH]c34)nn2)c1 [CL27c]
Akt/PKB phosphorylation [1]: readily reduced Akt/PKB phosphorylation
insulin-evoked Akt phosphorylation (Ser473) in lungs [2]: did not show elevation of protein kinase B (Akt) phosphorylation
insulin-evoked Akt phosphorylation in heart or liver [2]: insulin was able to normally increase Akt phosphorylation
